Measurements published in the NIST ThermoML archive (doi:10.1016/j.fluid.2017.01.019).

Assay: xn = mol fraction of the nth substance listed
Details: 100 kPa, Liquid; for viscosity: Falling or rolling sphere viscometry; for speed of sound: Frequency=3 MHz, Sing-around technique in a fixed-path interferometer; for mass density: Vibrating tube method

CCCCO [butan-1-ol] + CO
Details | mass density [kg/m3] | speed of sound [m/s] | viscosity [mPa·s]
293.15 K, x1 = 0.0997 | – | – | 0.7
293.15 K, x1 = 0.1994 | – | – | 0.83
293.15 K, x1 = 0.3068 | – | – | 0.99
293.15 K, x1 = 0.3991 | – | – | 1.15
293.15 K, x1 = 0.5082 | – | – | 1.36
293.15 K, x1 = 0.604 | – | – | 1.57
293.15 K, x1 = 0.6992 | – | – | 1.77
293.15 K, x1 = 0.7994 | – | – | 2.05
293.15 K, x1 = 0.9038 | – | – | 2.34
293.15 K, x1 = 1 | – | – | 2.61
298.15 K, x1 = 0.0997 | 791.339 | 1130.6 | –
298.15 K, x1 = 0.1994 | 794.665 | 1150 | –
298.15 K, x1 = 0.3068 | 797.503 | 1169.2 | –
298.15 K, x1 = 0.3991 | 799.477 | 1183.5 | –
298.15 K, x1 = 0.5082 | 801.494 | 1197 | –
298.15 K, x1 = 0.604 | 802.958 | 1210.3 | –
298.15 K, x1 = 0.6992 | 804.13 | 1218 | –
298.15 K, x1 = 0.7994 | 805.057 | 1228.8 | –
298.15 K, x1 = 0.9038 | 805.689 | 1235.8 | –
298.15 K, x1 = 1 | 806.27 | 1241.1 | –
303.15 K, x1 = 0.0997 | 786.81 | 1114.2 | 0.65
303.15 K, x1 = 0.1994 | 790.266 | 1133.6 | 0.76
303.15 K, x1 = 0.3068 | 793.243 | 1152.4 | 0.91
303.15 K, x1 = 0.3991 | 795.305 | 1166.7 | 1.05
303.15 K, x1 = 0.5082 | 797.42 | 1180.4 | 1.23
303.15 K, x1 = 0.604 | 798.956 | 1193.7 | 1.41
303.15 K, x1 = 0.6992 | 800.184 | 1201.4 | 1.59
303.15 K, x1 = 0.7994 | 801.155 | 1212.1 | 1.83
303.15 K, x1 = 0.9038 | 801.817 | 1219.1 | 2.08
303.15 K, x1 = 1 | 802.42 | 1224.3 | 2.31
308.15 K, x1 = 0.0997 | 782.263 | 1097.9 | 0.6
308.15 K, x1 = 0.1994 | 785.837 | 1117.3 | 0.71
308.15 K, x1 = 0.3068 | 788.95 | 1136.4 | 0.84
308.15 K, x1 = 0.3991 | 791.101 | 1150.6 | 0.96
308.15 K, x1 = 0.5082 | 793.315 | 1163.9 | 1.12
308.15 K, x1 = 0.604 | 794.922 | 1177.2 | 1.28
308.15 K, x1 = 0.6992 | 796.169 | 1184.8 | 1.43
308.15 K, x1 = 0.7994 | 797.222 | 1195.5 | 1.64
308.15 K, x1 = 0.9038 | 797.914 | 1202.4 | 1.86
308.15 K, x1 = 1 | 798.536 | 1207.5 | 2.07
313.15 K, x1 = 0.0997 | 777.683 | 1081.8 | 0.56
313.15 K, x1 = 0.1994 | 781.397 | 1101 | 0.66
313.15 K, x1 = 0.3068 | 784.606 | 1119.8 | 0.77
313.15 K, x1 = 0.3991 | 786.863 | 1134.2 | 0.88
313.15 K, x1 = 0.5082 | 789.167 | 1147.5 | 1.02
313.15 K, x1 = 0.604 | 790.889 | 1160.7 | 1.18
313.15 K, x1 = 0.6992 | 792.224 | 1168.3 | 1.29
313.15 K, x1 = 0.7994 | 793.273 | 1178.9 | 1.47
313.15 K, x1 = 0.9038 | 793.979 | 1185.7 | 1.66
313.15 K, x1 = 1 | 794.617 | 1190.9 | 1.85
318.15 K, x1 = 0.0997 | 773.076 | 1065.7 | 0.53
318.15 K, x1 = 0.1994 | 776.932 | 1084.9 | 0.61
318.15 K, x1 = 0.3068 | 780.263 | 1103.6 | 0.71
318.15 K, x1 = 0.3991 | 782.592 | 1118 | 0.81
318.15 K, x1 = 0.5082 | 784.996 | 1131.2 | 0.93
318.15 K, x1 = 0.604 | 786.847 | 1144.4 | 1.05
318.15 K, x1 = 0.6992 | 788.248 | 1151.8 | 1.17
318.15 K, x1 = 0.7994 | 789.325 | 1162.4 | 1.33
318.15 K, x1 = 0.9038 | 789.993 | 1169.2 | 1.49
318.15 K, x1 = 1 | 790.655 | 1174.2 | 1.66
323.15 K, x1 = 0.0997 | 768.447 | 1049.7 | 0.51
323.15 K, x1 = 0.1994 | 772.448 | 1068.9 | 0.58
323.15 K, x1 = 0.3068 | 775.921 | 1087.5 | 0.66
323.15 K, x1 = 0.3991 | 778.306 | 1101.8 | 0.75
323.15 K, x1 = 0.5082 | 780.936 | 1115 | 0.86
323.15 K, x1 = 0.604 | 782.762 | 1128 | 0.96
323.15 K, x1 = 0.6992 | 784.201 | 1135.4 | 1.06
323.15 K, x1 = 0.7994 | 785.373 | 1145.9 | 1.2
323.15 K, x1 = 0.9038 | 785.98 | 1152.6 | 1.35
323.15 K, x1 = 1 | 786.645 | 1157.6 | 1.5
